Experimental data from US20030180228A1, “Aerosol container for formulations of salmeterol xinafoate” (priority 2000, published 2003).

Tests used:
[1] = Fine particle mass (FPM) by Andersen Cascade Impactor on storage, section A canisters; format: physicochemical
Experimental: The FPM of an actuation from an MDI can be calculated based on, for example, the sum of the amount of drug substance deposited on stages 3, 4 and 5 of an Andersen Cascade Impaction stack as determined by standard HPLC analysis.
(§1) In the experiments below canisters were stored in an inverted orientation. Valves all had 63 μl metering volume. Water content was measured ex-valve using Karl-Fischer methodology.
(§2) Aluminium canisters fitted with Valois D60 valve and containing 12 g HFA 134a and 6.53 mg salmeterol xinafoate were stored under various conditions of temperature and humidity and the moisture content measured and FPM measured (Andersen Cascade Impactor), with results as follows:
(§3) Aluminium canisters fitted with Valois DF60 valve and containing 12g HFA 134a and 6.53 mg salmeterol xinafoate were stored under various conditions of temperature and humidity and the moisture content measured and FPM measured (Andersen Cascade Impactor), with results as follows:
(§4) Aluminium canisters fitted with Bespak valve and containing […] and 6.53 mg salmeterol xinafoate were stored under various conditions of temperature and humidity and the moisture content measured and FPM measured (Andersen Cascade Impactor), with results as follows:
(§5) Aluminium canisters fitted with Valois DF60 valve and containing 12g HFA134a and 6.53 mg salmeterol xinafoate were stored under various conditions of temperature and humidity and the moisture content measured and FPM measured (Andersen Cascade Impactor), with results as follows: […]

[2] = Water content of salmeterol xinafoate HFA 134a canisters on storage, ex-valve Karl-Fischer; format: physicochemical
Experimental: The water content of the formulation may be determined by conventional Karl Fischer methodology. Typically this involves measuring the total water content of the formulation ex-valve using Couliometric titration.
as §1, §2, §3, §4, §5

[3] = (iii) Valois D60 valve, 30° C./60% RH, 3 months
[4] = (iii) Valois D60 valve, 40° C./75% RH, 1 month
[5] = (iii) Valois D60 valve, 40° C./75% RH, 3 months
[6] = (iii) Valois D60 valve, 40° C./75% RH, Initial
[7] = (iv) Valois DF60 valve, 25° C./60% RH, 1 month
[8] = (iv) Valois DF60 valve, 25° C./60% RH, 3 months
[9] = (iv) Valois DF60 valve, 25° C./60% RH, 6 month
[10] = (iv) Valois DF60 valve, 25° C./60% RH, Initial
[11] = (iv) Valois DF60 valve, 25° C./75% RH, 1 month
[12] = (iv) Valois DF60 valve, 25° C./75% RH, 3 months
[13] = (iv) Valois DF60 valve, 25° C./75% RH, 6 month
[14] = (iv) Valois DF60 valve, 25° C./75% RH, Initial
[15] = (iv) Valois DF60 valve, 40° C./75% RH, 1 month
[16] = (iv) Valois DF60 valve, 40° C./75% RH, 3 months
[17] = (iv) Valois DF60 valve, 40° C./75% RH, 6 month
[18] = (v) Bespak valve, 40° C./75% RH, 3 months
[19] = (vi) Valois DF60 valve, 40° C./75% RH, 3 months
[20] = (vii) Valois DF60 valve, 40° C./75% RH, 3 months

**Q.** For `OCc1cc(C(O)CNCCCCCCOCCCCc2ccccc2)ccc1O` (stereo not drawn) [salmeterol xinafoate, 4-Hydroxy-α^1-[[[6-(4-phenylbutoxy)hexyl]amino]methyl]-1,3-benzenedimethanol], which FPM [1, 3] is on record?
**A.** 7.9 µg

**Q.** What about the FPM ([1]; (iii) Valois D60 valve, 30° C./60% RH, Initial) of the same compound?
**A.** 10.3 µg

**Q.** And the FPM [1, 4]?
**A.** 8.2 µg

**Q.** What about the FPM [1, 5] of the same compound?
**A.** 6.2 µg

**Q.** What about the FPM [1, 6] of the same compound?
**A.** 10.3 µg

**Q.** What about the FPM [1, 7] of the same compound?
**A.** 8.4 µg

**Q.** What about the FPM [1, 8] of the same compound?
**A.** 8.3 µg

**Q.** What about the FPM [1, 9] of the same compound?
**A.** 7.5 µg

**Q.** What about the FPM [1, 10] of the same compound?
**A.** 9.4 µg

**Q.** And the FPM [1, 11]?
**A.** 8.4 µg

**Q.** What about the FPM [1, 12] of the same compound?
**A.** 8.0 µg

**Q.** What about the FPM [1, 13] of the same compound?
**A.** 7.2 µg

**Q.** And the FPM [1, 14]?
**A.** 9.4 µg

**Q.** What about the FPM [1, 15] of the same compound?
**A.** 7.8 µg

**Q.** What about the FPM [1, 16] of the same compound?
**A.** 6.0 µg

**Q.** And the FPM [1, 17]?
**A.** 6.2 µg

**Q.** And the FPM ([1]; (iv) Valois DF60 valve, 40° C./75% RH, Initial)?
**A.** 9.4 µg

**Q.** And the FPM [1, 18]?
**A.** 7.0 µg

**Q.** And the FPM ([1]; (v) Bespak valve, 40° C./75% RH, Initial)?
**A.** 11.3 µg

**Q.** What about the FPM [1, 19] of the same compound?
**A.** 6.7 µg

**Q.** And the FPM ([1]; (vi) Valois DF60 valve, 40° C./75% RH, Initial)?
**A.** 9.5 µg

**Q.** And the FPM [1, 20]?
**A.** 7.4 µg

**Q.** And the FPM ([1]; (vii) Valois DF60 valve, 40° C./75% RH, Initial)?
**A.** 9.6 µg

**Q.** And the Water content ([2]; (iii) Valois D60 valve, 6.53 mg in 12 g HFA 134a, 30° C./60% RH, Initial)?
**A.** 92 ppm

**Q.** And the Water content [2, 3]?
**A.** 463 ppm

**Q.** And the Water content [2, 4]?
**A.** 412 ppm

**Q.** And the Water content [2, 5]?
**A.** 616 ppm

**Q.** And the Water content [2, 6]?
**A.** 92 ppm

**Q.** And the Water content ([2]; (iv) Valois DF60 valve, 6.53 mg in 12 g HFA 134a, 40° C./75% RH, Initial)?
**A.** 81 ppm

**Q.** And the Water content [2, 7]?
**A.** 194 ppm

**Q.** What about the Water content [2, 8] of the same compound?
**A.** 405 ppm

**Q.** And the Water content [2, 9]?
**A.** 446 ppm

**Q.** And the Water content [2, 10]?
**A.** 81 ppm

**Q.** What about the Water content [2, 11] of the same compound?
**A.** 217 ppm

**Q.** And the Water content [2, 12]?
**A.** 434 ppm

**Q.** And the Water content [2, 13]?
**A.** 485 ppm

**Q.** What about the Water content [2, 14] of the same compound?
**A.** 81 ppm

**Q.** What about the Water content [2, 15] of the same compound?
**A.** 360 ppm

**Q.** And the Water content [2, 16]?
**A.** 540 ppm

**Q.** What about the Water content [2, 17] of the same compound?
**A.** 526 ppm

**Q.** And the Water content ([2]; (v) Bespak valve, 6.53 mg in HFA 134a, 40° C./75% RH, Initial)?
**A.** 118 ppm

**Q.** What about the Water content [2, 18] of the same compound?
**A.** 457 ppm

**Q.** What about the Water content ([2]; (vi) Valois DF60 valve, 6.53 mg in 12 g HFA 134a, 40° C./75% RH, Initial) of the same compound?
**A.** 213 ppm

**Q.** What about the Water content [2, 19] of the same compound?
**A.** 746 ppm

**Q.** What about the Water content ([2]; (vii) Valois DF60 valve, 6.53 mg in 12 g HFA134a, 40° C./75% RH, Initial) of the same compound?
**A.** 181 ppm

**Q.** And the Water content [2, 20]?
**A.** 668 ppm
